How the values were obtained:
System xc− [1] = molecular target: T1, System xc− (Homo sapiens, UniProt Q9UPY5); experiment: 3H-glutamate release from human glial cells from brain astrocytoma (1321N1); type: cell-based; conditions: at 3 hours, 1321N1 cells
T1 construct: in vitro culture system of human glial cells from brain astrocytoma (1321N1); endogenous in cells; host or cells: 1321N1 human astrocytoma cells
T1 sequence (Q9UPY5 1-501): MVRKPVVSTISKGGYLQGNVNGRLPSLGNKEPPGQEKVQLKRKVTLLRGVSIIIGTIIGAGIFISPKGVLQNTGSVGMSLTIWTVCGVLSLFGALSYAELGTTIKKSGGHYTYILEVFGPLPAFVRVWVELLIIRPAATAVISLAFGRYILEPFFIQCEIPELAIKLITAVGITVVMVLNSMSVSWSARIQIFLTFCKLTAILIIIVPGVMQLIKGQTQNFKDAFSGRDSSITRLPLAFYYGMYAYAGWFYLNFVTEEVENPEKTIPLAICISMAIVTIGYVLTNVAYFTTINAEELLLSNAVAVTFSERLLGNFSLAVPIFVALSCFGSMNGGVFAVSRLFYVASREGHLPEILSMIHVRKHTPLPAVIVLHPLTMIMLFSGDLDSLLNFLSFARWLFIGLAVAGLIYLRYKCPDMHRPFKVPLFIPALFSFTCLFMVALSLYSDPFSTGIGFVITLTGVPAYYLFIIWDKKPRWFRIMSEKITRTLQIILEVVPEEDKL
T1 sequence (P08195 1-529 partner): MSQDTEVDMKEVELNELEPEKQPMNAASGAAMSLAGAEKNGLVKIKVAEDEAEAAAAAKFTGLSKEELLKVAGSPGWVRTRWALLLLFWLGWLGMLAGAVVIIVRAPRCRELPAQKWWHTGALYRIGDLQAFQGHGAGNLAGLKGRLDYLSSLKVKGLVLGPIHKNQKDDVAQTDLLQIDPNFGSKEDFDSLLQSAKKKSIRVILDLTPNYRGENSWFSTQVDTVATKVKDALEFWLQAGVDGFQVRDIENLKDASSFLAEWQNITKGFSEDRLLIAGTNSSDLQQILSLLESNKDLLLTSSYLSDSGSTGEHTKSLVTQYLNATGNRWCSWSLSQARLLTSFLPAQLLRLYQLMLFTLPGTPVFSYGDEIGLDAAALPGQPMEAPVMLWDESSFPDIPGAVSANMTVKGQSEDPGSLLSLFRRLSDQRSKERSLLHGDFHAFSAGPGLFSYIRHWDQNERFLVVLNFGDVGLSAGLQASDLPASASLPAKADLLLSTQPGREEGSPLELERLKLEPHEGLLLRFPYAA
Experimental: This assay also uses the cell culture system of human glial cells from brain astrocytoma (1321N1) described above. Initially, cells are washed with HBBSS, and ^3H-glutamate is added (PerkinElmer: 1 mCi/mL stock solution is diluted (30 μL+500 HBBSS) and 10 μL of diluted radiolabel is added to each well). Following a 1 hour incubation to load the cells with the labeled glutamate, the cells are washed again with HBBSS, and the drug is added. At 30, 90, and 180 minutes, 50 μL of extracellular media is sampled from each well and is measured using a Beckman LS 6500 scintillation counter.

System xc− [2] = molecular target: T1, System xc−; experiment: 14C-cystine uptake in human glial cells from brain astrocytoma (1321N1); type: cell-based; conditions: 1321N1 cells
Experimental: The goal of these experiments was to determine ^14C-cystine uptake.
The screening of compounds was performed using an in vitro culture system of human glial cells from brain astrocytoma (1321N1). Cells were plated on 24 well plates coated with poly-D-lysine and laminin and grown in a balanced salt solution supplemented with 5% heat inactivated horse serum, 5% fetal bovine serum, 2 mM glutamine and glucose (total 21 mM). Cultures were maintained in humidified 5% CO2 incubators at 37° C. for 3-4 days before experiments were performed, at this time the cultures has formed a single confluent layer. For experiments, cultures were washed 3 times into a Na-free HEPES and HCO3^− buffered balanced salt solution. After 1 hour, the test compounds are added. Following a three hour incubation, ^14C-cystine (0.025 mCi/mL) was then added for 20 minutes. Following the ^14C-cystine exposure, cultures were washed 3 times with ice cold HEPES buffered saline solution and dissolved in 250 μl sodium dodecyl sulfate (0.1%). An aliquot (200 μl) was removed and added to scintillation fluid for counting. Values were normalized to ^14C-cystine uptake in untreated controls on the same experimental plate.

Rats = experiment: Prepulse inhibition experiment (MK-801-induced deficit); type: in vivo; conditions: MK-801 0.1 mg/kg SC, MK-801 + vehicle control about 16%
Experimental: Rats were placed on a platform in a sound attenuating chamber (10.875″×14″×19.5″; Hamilton Kinder, CA) that rested on a motion sensing plate. During all sessions, the background noise was held constant at 60 dB. A matching session was conducted to determine the magnitude of the average startle response for each rat. This session consisted of a five minute habituation period followed by 20 trials; 17 trials involved the presentation of a single auditory stimulus (pulse stimulus; 50 dB above the background noise) and three trials in which a pre-pulse stimulus (12 db above background) was presented 100 ms before the pulse auditory stimulus. Rats were then assigned into the various treatment groups so that the magnitude of the startle response was equivalent across all groups. Two days later, a testing session was conducted to assess sensorimotor gating. One hour prior to testing, rats received a prodrug (0-100 mg/kg, P.O.) and 55 minutes later acute MK-801 maleate (0.1 mg/kg, SC). The testing session consisted of a five minute habituation period, after which rats received 58 discrete trials; 26 trials during which the pulse stimulus (50 db above background) was presented alone, eight trials each in which the pulse stimulus was preceded by a prepulse stimulus (5, 10, or 15 db above background) and eight background trials with no pulse (No stimulus; background noise only). The first six pulse alone trials were not included in the average startle stimulus to achieve a relatively stable level of startle reactivity. All startle responses were normalized to vehicle control, and the percent of prepulse inhibition was determined as 100-(average prepulse startle response/average startle stimulus alone)*100.

[3] = 10 mg/kg P.O. one hour prior to testing

increase in 3H-glutamate release (System xc− [1]; 300 μM) | inhibition at 1000 µM (System xc− [2]; 1000 μM, three hour incubation, read-out: decrease (inhibition) in 14C-cystine uptake) [%] | increase in 3H-glutamate release (System xc− [1]; 100 μM) | decrease in 14C-cystine uptake (System xc− [2]; over the concentrations tested, dose-dependent) | decrease in 14C-cystine uptake (System xc− [2]; 100 μM (most effective concentration), average of three experiments) | Structure (SMILES) | % prepulse inhibition (Rats; [3]) | % prepulse inhibition (Rats; 3 mg/kg P.O. one hour prior to testing)
approximately 135% | ~45 | – | – | – | CC(=O)N[C@@H](CSC(=O)c1ccc(C)cc1)C(=O)O [Pro-2023, (2R)-2-Acetylamino-3-(4-methyl-benzoylsulfanyl)-propionic acid] | about 30% | –
– | – | approximately 40% | 20-60% | – | CCOC(=O)[C@H](CSC(=O)C1CSC(=O)N1)NC(C)=O (stereo partly drawn) [Pro-4047, Ethyl (2R)-2-acetamido-3-(2-oxo-1,3-thiazolidine-4-carbonylsulfanyl) propanoate] | – | about 23%
approximately 100% | – | – | – | approximately 28% | CCOC(=O)[C@H](CSC(=O)c1ccc(C)cc1)NC(C)=O [Pro-4051, Ethyl (2R)-2-acetamido-3-(4-methylbenzoylsulfanyl)propanoate] | about 46% | –
